Experimental findings from ChEMBL document CHEMBL1151375, “Potential antitumor agents. XVII. physalin B and 25,26-epidihydrophysalin C from Witheringia coccoloboides” (1981) are described below.

≈ marks a conversion by molar mass, not a printed value.

Common to all, as to assay type: functional
Assay [1] in a line: Cytotoxicity against human 9KB cells. To be noted: read-out: ED50 (the source's name).
Assay [2] is described as follows: Cytotoxicity against mouse 9PS cells. The note with it: read-out: ED50 (the source's name).
Assay [3] is described as follows: In vivo cytotoxicity against mouse 3PS cells at 300 mg/kg.

Regarding `C[C@@H]1C(=O)O[C@@H]2C[C@@]1(C)[C@@H]1C(=O)[C@]3(O)O[C@]14[C@@]2(C)OC(=O)[C@@]4(O)CC[C@H]1[C@H]3CC=C2CC=CC(=O)[C@@]21C`, the EC50 was determined as 12 µg/mL (≈ 23.4 µM) in assay [1] and 0.89 µg/mL (≈ 1.74 µM) in assay [2].

With `C[C@]12C(=O)C=CCC1=CC[C@@H]1[C@@H]2CC[C@]2(O)C(=O)O[C@@]3(C)[C@H]4C[C@]5(C)[C@@H](CO[C@@]16O[C@@]32[C@H]5C6=O)C(=O)O4` [PHYSALIN B], the EC50 in assay [1] turned out to be 3.1 µg/mL (≈ 6.07 µM); in assay [2], 0.01 µg/mL (≈ 0.0196 µM). Moreover, in assay [3], the T/C is 137%.

For `C[C@@]12C[C@H]3OC(=O)[C@@H]1CO[C@]14O[C@@]5([C@H]2C1=O)[C@@]3(C)OC(=O)[C@@]5(O)CC[C@H]1[C@H]4C[C@@H]2O[C@@]23CC=CC(=O)[C@]13C` [5-ALPHA,6-ALPHA-EPOXYPHYSALIN B], the results for the EC50 in assay [1] and in assay [2] were 0.43 µg/mL (≈ 0.817 µM) and 1.6 µg/mL (≈ 3.04 µM), respectively.

What is called T/C is the result in the treated group divided by that in the control group, in per cent.
